# Read-outs that look alike come from different tables or passages of the source.
# Experiments:
# Assay in all cases: HotSpot kinase profiling
# Assay type in all cases: biochemical
# DYRK3 = biological target: T1, DYRK3 (Homo sapiens, UniProt O43781)
# T1 construct: purchased Reaction Biology Corp
# T1 sequence (O43781 1-588): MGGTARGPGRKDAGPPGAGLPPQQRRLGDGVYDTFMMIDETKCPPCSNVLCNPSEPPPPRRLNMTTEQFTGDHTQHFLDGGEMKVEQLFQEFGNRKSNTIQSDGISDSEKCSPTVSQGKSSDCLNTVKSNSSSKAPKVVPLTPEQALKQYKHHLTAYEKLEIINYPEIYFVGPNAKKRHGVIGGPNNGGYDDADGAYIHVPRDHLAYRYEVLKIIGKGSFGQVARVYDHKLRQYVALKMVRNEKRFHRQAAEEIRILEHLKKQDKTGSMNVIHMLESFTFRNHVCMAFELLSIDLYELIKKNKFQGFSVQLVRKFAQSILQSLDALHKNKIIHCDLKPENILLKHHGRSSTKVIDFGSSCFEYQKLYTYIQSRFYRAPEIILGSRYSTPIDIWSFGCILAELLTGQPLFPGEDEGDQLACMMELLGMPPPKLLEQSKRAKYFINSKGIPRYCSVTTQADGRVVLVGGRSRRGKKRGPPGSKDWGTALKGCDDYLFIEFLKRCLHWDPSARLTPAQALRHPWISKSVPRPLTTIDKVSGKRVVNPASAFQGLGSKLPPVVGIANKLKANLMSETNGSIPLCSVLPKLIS
# How it was run: (§1)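 Activity is measured by radiolabel transfer captured on P81 filters after a 2 h room-temperature reaction of kinase, substrate and cofactors. Values are percent inhibition against DMSO.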
# BMX/ETK = biological target: T2, BMX/ETK (Homo sapiens, UniProt P51813)
# T2 construct: purchased Reaction Biology Corp
# T2 sequence (P51813 1-675): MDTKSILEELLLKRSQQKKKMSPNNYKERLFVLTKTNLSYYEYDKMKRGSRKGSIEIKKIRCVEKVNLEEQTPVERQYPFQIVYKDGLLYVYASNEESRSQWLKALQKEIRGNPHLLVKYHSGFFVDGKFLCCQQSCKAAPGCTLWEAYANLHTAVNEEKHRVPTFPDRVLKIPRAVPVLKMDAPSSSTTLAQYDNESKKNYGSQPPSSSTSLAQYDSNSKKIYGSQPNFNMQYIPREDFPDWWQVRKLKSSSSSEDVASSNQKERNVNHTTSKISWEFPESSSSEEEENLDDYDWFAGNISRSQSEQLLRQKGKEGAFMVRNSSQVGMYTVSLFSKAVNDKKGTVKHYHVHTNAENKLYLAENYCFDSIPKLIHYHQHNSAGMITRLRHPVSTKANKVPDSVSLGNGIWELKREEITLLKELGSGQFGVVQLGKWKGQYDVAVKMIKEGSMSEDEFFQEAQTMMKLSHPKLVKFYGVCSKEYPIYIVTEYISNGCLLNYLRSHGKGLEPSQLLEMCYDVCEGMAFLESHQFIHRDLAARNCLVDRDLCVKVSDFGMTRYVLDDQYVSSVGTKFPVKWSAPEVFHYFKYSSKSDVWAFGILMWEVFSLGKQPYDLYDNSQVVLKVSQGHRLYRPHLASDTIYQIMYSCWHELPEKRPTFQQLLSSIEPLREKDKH
# How it was run: as §1
# LCK = biological target: T3, LCK (Homo sapiens, UniProt P06239)
# T3 construct: purchased Reaction Biology Corp
# T3 sequence (P06239 whole entry): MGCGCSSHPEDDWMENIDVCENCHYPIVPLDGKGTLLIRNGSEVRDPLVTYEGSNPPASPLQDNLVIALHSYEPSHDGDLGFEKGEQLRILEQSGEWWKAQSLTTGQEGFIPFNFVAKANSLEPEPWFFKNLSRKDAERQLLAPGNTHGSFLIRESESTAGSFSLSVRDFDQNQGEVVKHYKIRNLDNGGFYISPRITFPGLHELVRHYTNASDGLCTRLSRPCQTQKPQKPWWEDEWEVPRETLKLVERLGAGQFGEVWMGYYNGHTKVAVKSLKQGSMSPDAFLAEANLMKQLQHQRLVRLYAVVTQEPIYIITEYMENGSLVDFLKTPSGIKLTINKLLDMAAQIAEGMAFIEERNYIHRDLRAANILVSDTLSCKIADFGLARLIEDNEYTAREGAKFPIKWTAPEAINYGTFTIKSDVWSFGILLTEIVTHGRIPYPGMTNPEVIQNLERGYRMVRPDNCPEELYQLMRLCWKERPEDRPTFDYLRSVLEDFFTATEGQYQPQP
# How it was run: as §1
# PYK2 = biological target: T4, PYK2 (Homo sapiens, UniProt Q14289)
# T4 construct: purchased Reaction Biology Corp
# T4 sequence (Q14289 whole entry): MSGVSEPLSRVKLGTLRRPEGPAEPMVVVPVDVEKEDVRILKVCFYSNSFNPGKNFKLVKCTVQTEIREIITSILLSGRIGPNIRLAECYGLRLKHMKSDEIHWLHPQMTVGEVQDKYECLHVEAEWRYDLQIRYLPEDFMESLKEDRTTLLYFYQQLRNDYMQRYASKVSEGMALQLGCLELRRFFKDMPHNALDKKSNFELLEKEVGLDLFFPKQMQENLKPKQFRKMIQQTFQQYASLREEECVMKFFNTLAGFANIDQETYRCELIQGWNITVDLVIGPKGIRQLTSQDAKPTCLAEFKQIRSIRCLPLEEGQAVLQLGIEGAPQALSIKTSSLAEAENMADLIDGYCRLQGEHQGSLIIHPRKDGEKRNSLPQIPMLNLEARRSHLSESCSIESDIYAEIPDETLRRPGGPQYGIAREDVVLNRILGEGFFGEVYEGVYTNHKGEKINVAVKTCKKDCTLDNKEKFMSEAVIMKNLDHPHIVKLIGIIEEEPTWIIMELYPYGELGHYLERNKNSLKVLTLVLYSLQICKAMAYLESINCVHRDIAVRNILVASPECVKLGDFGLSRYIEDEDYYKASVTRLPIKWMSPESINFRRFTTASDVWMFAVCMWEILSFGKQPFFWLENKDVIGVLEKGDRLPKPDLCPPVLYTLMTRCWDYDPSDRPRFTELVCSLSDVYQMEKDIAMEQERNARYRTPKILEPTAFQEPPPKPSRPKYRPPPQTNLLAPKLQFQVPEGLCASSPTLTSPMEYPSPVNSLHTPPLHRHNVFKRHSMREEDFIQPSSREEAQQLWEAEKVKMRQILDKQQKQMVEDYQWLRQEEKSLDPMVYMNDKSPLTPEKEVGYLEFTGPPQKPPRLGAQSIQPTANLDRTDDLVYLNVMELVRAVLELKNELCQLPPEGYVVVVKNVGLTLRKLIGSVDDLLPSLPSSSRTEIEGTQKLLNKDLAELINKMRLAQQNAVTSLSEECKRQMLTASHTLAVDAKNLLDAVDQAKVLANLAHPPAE
# How it was run: as §1
# RSK4 = biological target: T5, RSK4 (Homo sapiens, UniProt Q9UK32)
# T5 construct: purchased Reaction Biology Corp
# T5 sequence (Q9UK32 whole entry): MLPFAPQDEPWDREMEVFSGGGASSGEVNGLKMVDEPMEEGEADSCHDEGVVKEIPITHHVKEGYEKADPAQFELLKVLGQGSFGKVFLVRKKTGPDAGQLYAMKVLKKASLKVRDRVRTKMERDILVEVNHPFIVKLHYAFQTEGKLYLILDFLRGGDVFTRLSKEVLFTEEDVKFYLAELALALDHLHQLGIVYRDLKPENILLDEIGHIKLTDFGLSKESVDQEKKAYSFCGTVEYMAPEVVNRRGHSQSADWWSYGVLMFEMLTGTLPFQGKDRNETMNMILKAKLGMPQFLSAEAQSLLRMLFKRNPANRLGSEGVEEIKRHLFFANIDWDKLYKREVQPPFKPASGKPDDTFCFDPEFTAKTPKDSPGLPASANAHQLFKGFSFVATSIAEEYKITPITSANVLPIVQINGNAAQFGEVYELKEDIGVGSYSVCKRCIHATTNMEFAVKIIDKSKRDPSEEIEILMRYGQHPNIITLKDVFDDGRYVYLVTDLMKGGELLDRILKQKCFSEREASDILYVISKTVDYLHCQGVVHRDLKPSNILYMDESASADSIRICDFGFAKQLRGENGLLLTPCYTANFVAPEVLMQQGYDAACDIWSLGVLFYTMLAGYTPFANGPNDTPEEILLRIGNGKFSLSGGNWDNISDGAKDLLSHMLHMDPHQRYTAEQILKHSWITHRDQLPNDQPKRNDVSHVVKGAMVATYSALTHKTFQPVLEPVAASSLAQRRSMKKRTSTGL
# How it was run: as §1
# PKCb2 = biological target: T6, PKCb2 (Homo sapiens, UniProt P05771)
# T6 construct: purchased Reaction Biology Corp
# T6 sequence (P05771 1-673 isoform P05771-2): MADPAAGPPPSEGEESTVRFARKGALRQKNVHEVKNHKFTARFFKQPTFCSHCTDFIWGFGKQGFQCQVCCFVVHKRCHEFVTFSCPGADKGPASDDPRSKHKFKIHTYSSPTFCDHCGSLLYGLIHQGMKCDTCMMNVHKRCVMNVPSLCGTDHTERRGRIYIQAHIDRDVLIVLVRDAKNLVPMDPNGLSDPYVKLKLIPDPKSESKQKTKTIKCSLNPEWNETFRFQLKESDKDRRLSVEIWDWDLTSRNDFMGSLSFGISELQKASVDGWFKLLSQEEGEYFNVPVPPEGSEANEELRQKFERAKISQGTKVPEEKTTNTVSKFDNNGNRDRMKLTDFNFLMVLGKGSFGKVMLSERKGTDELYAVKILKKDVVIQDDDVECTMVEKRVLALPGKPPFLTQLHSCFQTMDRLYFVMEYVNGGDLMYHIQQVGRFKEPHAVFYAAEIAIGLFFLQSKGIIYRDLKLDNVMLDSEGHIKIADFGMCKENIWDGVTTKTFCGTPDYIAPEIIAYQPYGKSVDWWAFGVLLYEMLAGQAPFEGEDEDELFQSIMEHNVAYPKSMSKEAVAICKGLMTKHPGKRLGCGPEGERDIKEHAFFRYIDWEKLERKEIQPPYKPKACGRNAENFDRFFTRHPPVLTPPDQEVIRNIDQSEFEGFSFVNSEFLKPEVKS
# How it was run: as §1
# NEK7 = biological target: T7, NEK7 (Homo sapiens, UniProt Q8TDX7)
# T7 construct: purchased Reaction Biology Corp
# T7 sequence (Q8TDX7 whole entry): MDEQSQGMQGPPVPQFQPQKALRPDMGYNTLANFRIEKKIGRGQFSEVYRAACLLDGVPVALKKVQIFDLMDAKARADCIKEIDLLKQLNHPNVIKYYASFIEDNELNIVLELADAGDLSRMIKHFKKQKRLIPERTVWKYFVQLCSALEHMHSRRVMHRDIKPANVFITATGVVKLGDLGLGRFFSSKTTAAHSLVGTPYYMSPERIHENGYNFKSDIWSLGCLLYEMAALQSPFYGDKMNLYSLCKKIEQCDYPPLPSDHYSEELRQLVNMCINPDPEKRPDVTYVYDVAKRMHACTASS
# How it was run: as §1
# CK1epsilon = biological target: T8, CK1epsilon (Homo sapiens, UniProt P49674)
# T8 construct: purchased Reaction Biology Corp
# T8 sequence (P49674 whole entry): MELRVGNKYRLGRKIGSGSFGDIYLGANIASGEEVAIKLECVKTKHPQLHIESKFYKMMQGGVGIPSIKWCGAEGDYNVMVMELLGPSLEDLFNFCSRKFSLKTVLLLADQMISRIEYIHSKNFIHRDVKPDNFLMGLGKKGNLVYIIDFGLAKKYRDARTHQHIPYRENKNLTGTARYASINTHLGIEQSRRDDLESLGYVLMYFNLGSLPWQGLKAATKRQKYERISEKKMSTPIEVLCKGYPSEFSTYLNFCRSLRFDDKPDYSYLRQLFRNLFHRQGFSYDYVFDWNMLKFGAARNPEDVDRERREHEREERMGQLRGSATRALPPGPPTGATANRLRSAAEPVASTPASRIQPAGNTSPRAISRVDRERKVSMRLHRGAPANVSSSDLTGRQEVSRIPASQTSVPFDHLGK
# How it was run: as §1
# CLK2 = biological target: T9, CLK2 (Homo sapiens, UniProt P49760)
# T9 construct: purchased Reaction Biology Corp
# T9 sequence (P49760 whole entry): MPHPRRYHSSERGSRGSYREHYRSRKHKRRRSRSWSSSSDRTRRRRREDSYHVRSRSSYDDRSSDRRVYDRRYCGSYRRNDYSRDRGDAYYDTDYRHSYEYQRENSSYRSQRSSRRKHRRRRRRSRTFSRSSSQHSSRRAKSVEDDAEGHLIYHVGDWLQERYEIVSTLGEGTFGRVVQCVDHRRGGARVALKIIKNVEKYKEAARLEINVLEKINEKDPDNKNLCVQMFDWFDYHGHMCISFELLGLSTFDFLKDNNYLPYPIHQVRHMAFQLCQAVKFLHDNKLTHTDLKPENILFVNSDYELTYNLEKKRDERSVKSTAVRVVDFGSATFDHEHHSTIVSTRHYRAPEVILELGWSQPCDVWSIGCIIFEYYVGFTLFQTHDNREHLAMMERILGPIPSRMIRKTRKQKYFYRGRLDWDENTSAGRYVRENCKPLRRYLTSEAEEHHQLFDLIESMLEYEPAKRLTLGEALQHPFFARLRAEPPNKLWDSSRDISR
# How it was run: as §1
# [1] = read-out: % Enzyme Activity (relative to DMSO controls) Run 1
# [2] = read-out: % Enzyme Activity (relative to DMSO controls) Run 2
structure (smiles),measurement,setting,value
C=CC(=O)Nc1cccc(Nc2nc(Nc3ccc(OCCOC)c(F)c3)ncc2F)c1 [Compound 2],inhibition at 3 µM,DYRK3,14.1%
same,remaining activity at 3 µM,DYRK3; [1],86%
same,remaining activity at 3 µM,DYRK3; [2],85.9%
same,inhibition at 3 µM,BMX/ETK,98.9%
same,remaining activity at 3 µM,BMX/ETK; [1],0.93%
same,remaining activity at 3 µM,BMX/ETK; [2],1.23%
same,inhibition at 3 µM,LCK,36%
same,remaining activity at 3 µM,LCK; [1],64.7%
same,remaining activity at 3 µM,LCK; [2],63.4%
same,inhibition at 3 µM,PYK2,29.6%
same,remaining activity at 3 µM,PYK2; [1],70.6%
same,remaining activity at 3 µM,PYK2; [2],70.1%
same,inhibition at 3 µM,RSK4,22.8%
same,remaining activity at 3 µM,RSK4; [1],77.2%
same,remaining activity at 3 µM,RSK4; [2],77.2%
same,inhibition at 3 µM,PKCb2,50.5%
same,remaining activity at 3 µM,PKCb2; [1],50.1%
same,remaining activity at 3 µM,PKCb2; [2],48.9%
same,inhibition at 3 µM,NEK7,0.68%
same,remaining activity at 3 µM,NEK7; [1],98.3%
same,remaining activity at 3 µM,NEK7; [2],100%
same,inhibition at 3 µM,CK1epsilon,-1.96%
same,remaining activity at 3 µM,CK1epsilon; [1],102%
same,remaining activity at 3 µM,CK1epsilon; [2],102%
same,inhibition at 3 µM,CLK2,49.6%
same,remaining activity at 3 µM,CLK2; [1],50.2%
same,remaining activity at 3 µM,CLK2; [2],50.6%
